# Data published in US8048900B2, “Use of 15-lipoxygenase inhibitors for treating obesity” (Genfit S.A., priority 2006, dated 2011).
# Like-named read-outs stand apart in the source and are kept apart here.
# Tests used:
# 15-LO = 15-LO inhibition, cited from earlier work
# [1] = tested on: human abdominal visceral PA; test: aP2 marker expression during differentiation of human abdominal visceral pre-adipocytes (RT-PCR / RT-QPCR); format: cell-based
# Experimental: (§1) HWP from Promocell are maintained in PA growth medium (0.4% ECGS/H, 5% FCS, 10 ng/ml EGF, 1 μg/ml hydrocortisone, 50 ng/ml amphotericin B, 50 μg/ml gentamycin) until confluence. When cells reach confluence, they are differentiated for 3 days in PA differentiation medium (8 μg/ml d-biotin, 0.5 μg/ml recombinant human insulin, 400 ng/ml dexamethasone, 44 μg/ml IBMX, 9 ng/ml L-thyroxin, 3 μg/ml ciglitazone, 50 ng/ml amphotericin B, 50 ng/ml gentamycin), then cultured to the terminal differentiation stage in adipocyte nutritive medium (3% FCS, 8 μg/ml d-biotin, 0.5 μg/ml recombinant human insulin, 400 ng/ml dexamethasone, 50 ng/ml amphotericin B, 50 μg/ml gentamycin). PA from Cambrex are maintained in PA growth medium (10% FCS, 100 U/ml penicillin, 100 μg/ml streptomycin) until confluence, then the medium is replaced by differentiation medium (10% FCS, 10 μg/ml recombinant human insulin, 1 μM dexamethasone, 500 μM IBMX, 200 μM indomethacin, 100 U/ml penicillin, 100 μg/ml streptomycin) throughout the differentiation process. Extraction of RNA and Analysis of 15-LO-1 and aP2 Gene Expression by RT-PCR and RT-QPCR
# Human abdominal visceral PA from several donors are differentiated as described in example 4. PD146176 diluted in DMSO is added when the PA reached confluence (D0) and is maintained in the medium during the differentiation of PA to adipocytes. DMSO at 0.1% final concentration is added to the culture medium as negative control.
# aP2 (adipocyte lipid-binding protein), like adiponectin, is a marker of adipocyte differentiation. Total RNA is extracted from the cells at different times during differentiation (D3, D7) as described in example 3 and expression of the aP2 marker is analyzed by RT-PCR or RT-QPCR as described in examples 1 and 2. Relative expression is reported with reference to the day of confluence (D0) and normalized to cyclophilin expression.
# [2] = tested on: human abdominal visceral PA; test: Adiponectin secretion during differentiation of human abdominal visceral pre-adipocytes; format: cell-based; conditions: culture supernatant, D7 of differentiation, treated from D0, PA culture No. 3 passage 4
# Experimental: as §1, with “Extraction of RNA and Analysis of 15-LO-1 and aP2 Gene Expression by RT-PCR and RT-QPCR” left out
# Adiponectin is a factor secreted by adipocytes and, like aP2, serves as a marker of adipocyte differentiation in our cultures. Adiponectin concentrations is determined in culture supernatants at different times during differentiation using the Quantikine human adiponectin/ACRP30 kit according to the supplier's instructions (R&D, Minneapolis, Minn., USA).
# 3T3-L1 cells [3] = test: 3T3-L1 cell morphology during adipocyte differentiation; format: cell-based, mouse; conditions: addition at D0, photographs during differentiation
# Experimental: (§2) The mouse PA 3T3-L1 cell line (ATCC) is maintained in DMEM (Dulbecco's Modified Eagle's minimal essential Medium) supplemented with 10% FCS, L-glutamine and a penicillin/streptomycin mixture. At confluence (D0), 3T3-L1 cells are differentiated by a two-day treatment with a mixture of dexamethasone (0.1 μM), isobutylmethylxanthine (0.25 mM) and insulin (0.4 μM). Cells are then maintained on insulin for another 14 days until differentiation is complete. Photographs are taken at different times after confluence in order to visually follow the differentiation process.
# (§3) PD146176 is added to the 3T3-L1 cells when they reach confluence (D0) and is maintained throughout the differentiation process with replacement every other day at the same time as the insulin.
# 3T3-L1 cells [4] = test: Quantification of 3T3-L1 differentiation with AdipoRed; format: cell-based, mouse; conditions: addition at D0, starting from D3 of differentiation
# Experimental: as §2, §3
# The gradual accumulation of intracellular droplets is also used as a functional marker of differentiation to adipocytes. To quantify this accumulation the 3T3-L1 cells are differentiated in 96-well microtiter plates. The plates are removed from the incubator on the day of the assay in order to reequilibrate to room temperature. The medium is removed, the cells carefully rinsed with 200 μl PBS, and 200 μl PBS are then added to each well followed by 5 μl AdipoRed reagent (Cambrex, Paris, France). The plates are mixed before measuring fluorescence on a fluorimeter at an excitation wavelength of 485 nm and an emission wavelength of 535 nm.
# 3T3-L1 cells [5] = test: Assay of intracellular triglycerides in 3T3-L1 cells; format: cell-based, mouse
# Experimental: The mouse PA 3T3-L1 cell line (ATCC) is maintained in DMEM (Dulbecco's Modified Eagle's minimal essential Medium) supplemented with 10% FCS, L-glutamine and a penicillin/streptomycin mixture. At confluence (D0), 3T3-L1 cells are differentiated by a two-day treatment with a mixture of dexamethasone (0.1 μM), isobutylmethylxanthine (0.25 mM) and insulin (0.4 μM). Cells are then maintained on insulin for another 14 days until differentiation is complete. Photographs are taken at different times after confluence in order to visually follow the differentiation process. PD146176 is added to the 3T3-L1 cells when they reach confluence (D0) and is maintained throughout the differentiation process with replacement every other day at the same time as the insulin. To assay intracellular triglycerides, the 3T3-L1 cells are differentiated in 24-well microtiter plates. Cells are washed three times in PBS, then 500 μl of homogenization buffer (150 mM NaCl, Tris HCL pH 8, 0.1% Triton X-100) are added to each well. The cells are scraped into a tube and lysed by sonication for 10 seconds at 40 watts. The lysate is then filtered on a 0.2 μM millipore filter. The assay is carried out on 125 μl of the resulting lysate using the Triglyceride L-type kit (Wako). The assay is normalized for the protein content of the lysates.
# 3T3-L1 cells [6] = test: aP2 and LPL expression by RT-QPCR in 3T3-L1 cells during differentiation; format: cell-based, mouse; conditions: addition at D0, starting from D3 of differentiation
# Experimental: as §2, §3
# Total RNA is extracted at different times during differentiation as described in example 3 and expression of the aP2 and LPL (lipoprotein lipase) genes is analyzed by RT-QPCR according to the method described in example 2 (see Table 9).
# rat PA [7] = test: Rat primary PA morphology during adipocyte differentiation; format: cell-based; conditions: 2.2 μM added at D0
# Experimental: (§4) Cells from the VS fraction (isolated by the same method as that described in example 3) are seeded in 6-well plates at a density of 80,000 cells/cm^2 in medium 199 (Gibco) supplemented with 10% FCS and a penicillin/streptomycin mixture. After a 16-hour incubation to allow cell adherence, the wells are gently rinsed with PBS to remove any non-adherent material. The cells are grown to confluence (D0) at which time the medium 199 is removed and replaced by ITT medium (DME/Ham's F12, 15 mM NaHCO3, 15 mM Hepes, 33 μm biotin, 17 μM panthotenate, 0.5 μM human insulin, 0.2 nM triiodothyronine and antibiotics) without addition of serum. Cells are maintained in this medium to enable differentiation; the medium is changed every 2-3 days during the differentiation process.
# (§5) Caffeic acid (2.2 μM) was added when the rat PA reach confluence (D0) and is maintained during the adipocyte differentiation process. At a concentration of 2.2 μM, caffeic acid is considered as a selective inhibitor of 15-LO (Shureiqi I, Chen D, Lee J J, Yang P, Newman R A, Brenner D E, Lotan R, Fischer S M and Lippman S M, 2000). DMSO is added to 0.1% final concentration to the culture medium as negative control.
# rat PA [8] = test: aP2 expression in rat primary PA during adipocyte differentiation; format: cell-based; conditions: 2.2 μM added at D0, read at D3
# Experimental: as §4
# as §5, with “DMSO is added to 0.1% final concentration to the culture medium as negative control.” left out
# Total RNA is extracted at different times during differentiation according to the method described in example 3 and aP2 and LPL gene expression is analyzed by quantitative RT-PCR as described in example 2 (see Table 10).
# [9] = value quoted from prior patents
compound,measurement,setting,value
"COc1ccc(C(=O)Nc2ccc(Cl)c(Cl)c2)cc1N [3-amino-N-(3,4-dichlorophenyl)-4-methoxy-benzamide]",IC50,15-LO; [9],10 nM
"c1ccc2c(c1)SCc1c-2[nH]c2ccccc12 [PD146176, 6,11-dihydro-5-thia-11-aza-benzo[a]-fluorene]",expression of the aP2 marker,"[1]; RT-PCR, D3 of differentiation, PA culture No. 1 passage 7, increasing concentrations added at D0",decreases the expression of the aP2 marker in a dose-dependent manner
same,inhibition of 15-LO-1 expression,"[1]; RT-QPCR, D7, 3 μM from D0, PA culture No. 2",almost completely
same,inhibition of 15-LO-1 expression,"[1]; RT-QPCR, D7, 3 μM from D0, PA culture No. 3",90%
same,aP2 expression,"[1]; RT-QPCR, D7 of differentiation, 3 μM from D0, PA cultures No. 2 and No. 3, vs DMSO-treated or untreated cells",strongly inhibited
same,adiponectin secretion,[2],sharply decreased
same,lipid accumulation in the cells (morphology),3T3-L1 cells [3],dose-dependent inhibition of lipid accumulation
same,AdipoRed staining,3T3-L1 cells [4],sharply decreases AdipoRed staining in a dose-dependent manner
same,decrease in triglyceride accumulation relative to the control,"3T3-L1 cells [5]; 10 μM, D10",80%
same,triglyceride accumulation,3T3-L1 cells [5]; addition at D0,dose-dependent decrease
same,expression of LPL marker,3T3-L1 cells [6],dose-dependent decrease
same,expression of aP2 marker,3T3-L1 cells [6],dose-dependent decrease
same,IC50,15-LO; value quoted from prior literature/patents,500 to 800 nM
same,IC50,15-LO; [9],200 nM
"COc1ccc(-c2cc3cc(F)c(F)cc3[nH]2)cc1NS(=O)(=O)NC(=O)OCC(C)C [[[[5-(5,6-difluoro-1H-indol-2-yl)-2-methoxyphenyl]amino]sulfonyl]carabamic acid isobutyl ester]",IC50,15-LO; [9],14 nM
O=C(O)/C=C/c1ccc(O)c(O)c1 [caffeic acid],lipid accumulation in the cells (morphology),rat PA [7],inhibition of lipid accumulation
same,aP2 expression,rat PA [8],decreases aP2 expression
